The target in series [1] is T1, Flag-GFP-FOXM1(688–748) protein (Homo sapiens, UniProt Q08050).
T1 construct: expressing exogenous Flag-GFP-FOXM1(688-748) protein; expressed in transfected cells; host or cells: 293T (HEK-293T) cell lysates
T1 sequence (Q08050 688-748 isoform Q08050-2): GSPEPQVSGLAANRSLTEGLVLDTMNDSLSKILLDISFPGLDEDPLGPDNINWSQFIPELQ
Put plainly: Biotin-peptide Pulldown with Streptavidin Magnetic Beads. To be noted: biotin-labeled peptide, 293T cell lysates (500 µg) expressing Flag-GFP-FOXM1(688–748); Western Blotting. The class given is binding. From the text:
Fig. 1 Screening of TAT-106-126 peptide targeting FOXM1 protein. A An in silico peptide library (P1 to P24, 21-mer) was created from the FOXM1 N-terminus sequence (1-138aa) with a 5 amino acid shift window. The peptide candidates binding to FOXM1 C-terminus (PDB ID 6OSW) were selected by Rosetta FlexPepDock simulation and InterfaceAnalyzer calculation according to docking free energy (dG). B P20, P21, and P22 fused with the cell-penetrating TAT sequence (TAT-96-116, TAT-101-121, and TAT-106-126) were produced by solid-phase peptide synthesis. […] Data points indicated the fraction of GFP-M1(688–748)-bound peptides (ΔFNormal/Amplitude) at different concentrations and curves indicated the calculated fits. The error bars represented the standard error of three independent measurements. […] 48 h Later, trypan blue (0.4%) was added to each well for 3 min and the cells were fixed to 4% paraformaldehyde for imaging. […] The mean IC50 value (µM) for each peptide was obtained from three replicates. D The TAT-106-126 peptide was biotin-labeled and added to 293T cell lysates (500 µg) expressing exogenous Flag-GFP-FOXM1(688–748) protein. The lysates were incubated with Streptavidin magnetic beads to pull down biotin-peptide/protein complexes. Biotin and Flag-GFP-FOXM1(688–748) protein in samples were detected by Western Blotting. […] E Biotin-labeled TAT-106-126 or TAT was added to 293T cell lysates (500 µg). The lysates were incubated with Streptavidin magnetic beads to pull down biotin-peptide/protein complexes. Biotin and endogenous FOXM1 protein were detected by Western Blotting.
A Biotin-labeled peptides TAT-96-116, TAT-101-121, and TAT-106-126 were added to 293T cell lysates (500 µg) expressing exogenous Flag-GFP-FOXM1(688-748) protein (or Flag-GFP control lysates). The lysates were incubated with Streptavidin magnetic beads to pull down biotin-peptide/protein complexes. Biotin and Flag-GFP-FOXM1(688-748) protein in samples were detected by Western Blotting. […] Biotin and exogenous FOXM1 protein were detected by Western Blotting.
In general terms: Immunoblotting shows a protein as a band on a membrane.

A further series addresses T2, full-length FOXM1 (Homo sapiens, UniProt Q08050).
T2 sequence (Q08050 703-763 limits assumed): T1 sequence (Q08050 688-748 isoform Q08050-2)
The series is described as above. The class given is binding. To be noted: biotin-labeled peptide, cell lysates (500 µg) with endogenous or exogenous FOXM1; Western Blotting. The method, then: (§1) SDS-PAGE gel electrophoresis and Coomassie brilliant blue staining were performed to measure peptide stability. […] Cells were collected at different post-treatment time points (0, 1, 2, 4, 8, 16, 24, 36, 48 h). […] D The docking of peptide P22 (106–126) to the FOXM1 C-terminus (PDB ID 6OSW) was created by Rosetta FlexPepDock and PyMOL. Left, the interface of peptide-protein interaction, the peptide was shown in cyan, and the C-terminus of FOXM1 was shown according to its electrostatic potential. Right, hydrogen bonds are formed by residues at the interface of peptide and protein interaction. […] Streptavidin magnetic beads were added to lysates to pull down the biotin-peptides/protein complexes. […] M1-21mut was used as the control.

Series [2] addresses T3, interaction between FOXM1 and PLK1 (Homo sapiens, UniProt Q08050).
T3 construct: expressed in transfected cells; host or cells: MDA-MB-231 stably infected with pLVX-TetOne-Flag-FOXM1b lentivirus (231-Flag-FOXM1-Ind), doxycycline-induced
Put plainly: Co-IP in 231-Flag-FOXM1-Ind cells. The format is cell-based. The conditions noted are these: doxycycline 200 ng/mL 24 h, M1-21 10, 20 µM or TAT-106-126 20, 40, 80 µM for 6 h. From the text: Number of repetitions = 3. […] Number of repetitions = 3. […] Number of repetitions = 3. […] GAPDH was used as a loading control.

The test system of another series is MDA-MB-231 cells. Put plainly: Half-life of biotin-labeled peptides in living cells (Western blotting). The class given is in vitro ADME, human. To be noted: biotin-labeled peptide 20 µM for 2 h, then fresh medium, cells collected 0-48 h, β-actin loading control. On the procedure: as §1

Three sequences from paper PMC10286459 (Cell & Bioscience, 2023) can be followed below.

No end group written: not given here.

T3 sequence (Q08050 1-748 isoform Q08050-2): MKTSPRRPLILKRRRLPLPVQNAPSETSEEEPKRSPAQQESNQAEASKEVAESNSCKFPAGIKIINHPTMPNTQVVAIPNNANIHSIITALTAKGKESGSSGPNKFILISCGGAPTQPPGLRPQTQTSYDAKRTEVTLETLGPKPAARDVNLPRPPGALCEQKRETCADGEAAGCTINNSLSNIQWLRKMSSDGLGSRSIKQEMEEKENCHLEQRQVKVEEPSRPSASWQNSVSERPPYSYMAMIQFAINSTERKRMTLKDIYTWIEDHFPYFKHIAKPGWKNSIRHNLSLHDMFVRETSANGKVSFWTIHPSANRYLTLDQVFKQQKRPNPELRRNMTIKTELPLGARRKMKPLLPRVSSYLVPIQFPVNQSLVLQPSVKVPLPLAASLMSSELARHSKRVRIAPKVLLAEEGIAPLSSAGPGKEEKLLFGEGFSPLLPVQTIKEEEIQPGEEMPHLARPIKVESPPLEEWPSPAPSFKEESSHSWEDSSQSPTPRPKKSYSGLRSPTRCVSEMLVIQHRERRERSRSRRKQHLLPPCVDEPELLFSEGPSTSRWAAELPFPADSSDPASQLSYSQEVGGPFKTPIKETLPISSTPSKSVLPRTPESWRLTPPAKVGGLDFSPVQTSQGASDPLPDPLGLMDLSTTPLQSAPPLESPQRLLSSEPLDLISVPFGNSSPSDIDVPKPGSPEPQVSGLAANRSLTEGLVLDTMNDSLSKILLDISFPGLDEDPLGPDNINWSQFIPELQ

Turning to “GRKKRRQRRRSGPNKFILISCGGAPTQPPGL [TAT-101-121]”, the “binding to FOXM1 C-terminus in Pulldown” value in series [1] is listed as “interacted”. Also, the “binding to full-length FOXM1 in Pulldown” value on full-length FOXM1 is reported as “neither of them effectively bound”.
For “GRKKRRQRRRKESGSSGPNKFILISCGGAPT [TAT-96-116]”, in that order: “interacted” and “neither of them effectively bound”.
As to “GRKKRRQRRRFILISCGGAPTQPPGLRPQTQ [TAT-106-126]”, the “interaction between FOXM1 and PLK1 (Co-IP)” value in series [2] is “comparable activity to M1-21”. For the same sequence, the “Half-life in living MDA-MB-231 cells” value with MDA-MB-231 cells came out at 6.2 h. The “binding to FOXM1 C-terminus in Pulldown” value in series [1] is reported as “capable of binding”. Further, the “binding to full-length FOXM1 in Pulldown” value at full-length FOXM1 was “capable of binding”.
